From ChEMBL document CHEMBL3244102, “Piperazinylpyrazines with central serotoninmimetic activity” (J Med Chem, 1978) come the findings set out here.

For data set [1], the system named is Mus musculus. Description: Central serotoninmimetic activity in CF mouse assessed as induction of head twitches at 6 mg/kg, ip after 60 mins. The arrangement: dose 6 mg/kg. The class given is functional, organism-based.
The subject of data set [2] is Mus musculus. Description: Central serotoninmimetic activity in CF mouse assessed as induction of head twitches at 30 mg/kg, ip after 60 mins. The class given is functional, organism-based. The arrangement: dose 30 mg/kg.
Data set [3] is described as follows: Peripheral serotoninmimetic activity in Charles River rat uterus assessed as uterine contraction measured as tension developed at 1 ug/ml. The class given is ADME, tissue-based.
In data set [4] the test system is Mus musculus. Briefly: Central serotoninmimetic activity in CF mouse assessed as induction of head twitches at 10 mg/kg, ip after 30 to 60 mins in presence of methergoline. The arrangement: dose 10 mg/kg. The class given is functional, organism-based.
Data set [5] relates to Mus musculus. Briefly: Central serotoninmimetic activity in CF mouse assessed as induction of head twitches at 60 mg/kg, ip after 30 mins in presence of xylamidine. The class given is functional, organism-based. The arrangement: dose 60 mg/kg.
Data set [6] in a line: Peripheral serotoninmimetic activity in Charles River rat uterus assessed as uterine contraction measured as tension developed at 5 ug/ml relative to methacholine. The class given is ADME, tissue-based.
A short description of data set [7]: Peripheral serotoninmimetic activity in Charles River rat uterus assessed as uterine contraction measured as tension developed at 1 ug/ml relative to methacholine. Format: ADME, tissue-based.
The nature of data set [8]: Peripheral serotoninmimetic activity in Charles River rat uterus assessed as uterine contraction measured as tension developed at 0.5 ug/ml. The class given is ADME, tissue-based.
Data set [9] can be described thus: Peripheral serotoninmimetic activity in Charles River rat uterus assessed as uterine contraction measured as tension developed at 10 ug/ml relative to methacholine. Format: ADME, tissue-based.
The nature of data set [10]: Ratio of serotonin EC50 to compound EC50 for peripheral serotoninmimetic activity in Charles River rat uterus. Format: ADME, tissue-based.
Data set [11] can be described thus: Peripheral serotoninmimetic activity in Charles River rat uterus assessed as uterine contraction measured as tension developed at 0.1 ug/ml. Format: ADME, tissue-based.
Data set [12] can be described thus: Peripheral serotoninmimetic activity in Charles River rat uterus assessed as uterine contraction measured as tension developed at 10 ug/ml in presence of hydroxindasol. The class given is ADME, tissue-based.
A short description of data set [13]: Peripheral serotoninmimetic activity in Charles River rat uterus assessed as uterine contraction measured as tension developed at 20 ug/ml. Format: ADME, tissue-based.
Data set [14] has as its system Mus musculus. Description: Central serotoninmimetic activity in CF mouse assessed as induction of head twitches at 10 mg/kg, ip after 30 to 60 mins in presence of cyproheptadine. Format: functional, organism-based. Further details: dose 10 mg/kg.
Data set [15] in a line: Peripheral serotoninmimetic activity in Charles River rat uterus assessed as uterine contraction measured as tension developed at 10 ug/ml. Format: ADME, tissue-based.
In data set [16] the test system is Mus musculus. Briefly: Central serotoninmimetic activity in CF mouse assessed as induction of head twitches at 10 mg/kg, ip after 30 mins in presence of xylamidine. Further details: dose 10 mg/kg. The class given is functional, organism-based.
A short description of data set [17]: Peripheral serotoninmimetic activity in Charles River rat uterus assessed as uterine contraction measured as tension developed at 5 ug/ml. Format: ADME, tissue-based.
The nature of data set [18]: Peripheral serotoninmimetic activity in Charles River rat uterus assessed as uterine contraction. The class given is ADME, tissue-based.
The nature of data set [19]: Peripheral serotoninmimetic activity in Charles River rat uterus assessed as uterine contraction measured as tension developed at 0.5 ug/ml relative to methacholine. Format: ADME, tissue-based.
A short description of data set [20]: Peripheral serotoninmimetic activity in Charles River rat uterus assessed as uterine contraction measured as tension developed at 10 ug/ml in presence of methylsergide. The class given is ADME, tissue-based.
Data set [21] is described as follows: Peripheral serotoninmimetic activity in Charles River rat uterus assessed as uterine contraction measured as tension developed at 0.00075 ug/ml relative to methacholine. The class given is ADME, tissue-based.
A short description of data set [22]: Peripheral serotoninmimetic activity in Charles River rat uterus assessed as uterine contraction measured as tension developed at 0.001 ug/ml relative to methacholine. Format: ADME, tissue-based.
Data set [23] in a line: Peripheral serotoninmimetic activity in Charles River rat uterus assessed as uterine contraction measured as tension developed at 0.01 ug/ml relative to methacholine. Format: ADME, tissue-based.
The nature of data set [24]: Peripheral serotoninmimetic activity in Charles River rat uterus assessed as uterine contraction measured as tension developed at 0.01 ug/ml in presence of hydroxindasol. The class given is ADME, tissue-based.
A short description of data set [25]: Peripheral serotoninmimetic activity in Charles River rat uterus assessed as uterine contraction measured as tension developed at 0.005 ug/ml. The class given is ADME, tissue-based.
Data set [26] in a line: Peripheral serotoninmimetic activity in Charles River rat uterus assessed as uterine contraction measured as tension developed at 0.01 ug/ml in presence of methylsergide. The class given is ADME, tissue-based.
The nature of data set [27]: Peripheral serotoninmimetic activity in Charles River rat uterus assessed as uterine contraction measured as tension developed at 0.00050 ug/ml. Format: ADME, tissue-based.
A short description of data set [28]: Peripheral serotoninmimetic activity in Charles River rat uterus assessed as uterine contraction measured as tension developed at 0.05 ug/ml. Format: ADME, tissue-based.
The nature of data set [29]: Peripheral serotoninmimetic activity in Charles River rat uterus assessed as uterine contraction measured as tension developed at 0.00050 ug/ml relative to methacholine. The class given is ADME, tissue-based.
A short description of data set [30]: Peripheral serotoninmimetic activity in Charles River rat uterus assessed as uterine contraction measured as tension developed at 0.001 ug/ml. The class given is ADME, tissue-based.
Data set [31] in a line: Peripheral serotoninmimetic activity in Charles River rat uterus assessed as uterine contraction measured as tension developed at 0.01 ug/ml. The class given is ADME, tissue-based.
Data set [32] can be described thus: Peripheral serotoninmimetic activity in Charles River rat uterus assessed as uterine contraction measured as tension developed at 0.005 ug/ml relative to methacholine. The class given is ADME, tissue-based.
Data set [33] in a line: Peripheral serotoninmimetic activity in Charles River rat uterus assessed as uterine contraction measured as tension developed at 0.00075 ug/ml. The class given is ADME, tissue-based.

Structures are written as SMILES. In brackets after ≈: the same amount, converted by molar mass. Activity calls are given as the source filed them. The calls are words filed in the database; no cut-off is given here.

With `Clc1nccnc1N1CCNCC1`, the outcome with Mus musculus [1] and in the data set on Mus musculus [2] was inactive.

`CN(C)c1cncc(N2CCNCC2)n1`: the outcome with Mus musculus [1] and with Mus musculus [2] was inactive.

Regarding `O=C1CN(c2cncc(Cl)n2)CCN1`, the result in the data set with Mus musculus [1] and in the data set on Mus musculus [2] was inactive.

On to `Cl.Clc1cncc(N2CCNCC2)n1`, for which the Activity in data set [3] is given as 0.4 g; in [8], 0.27 g; in data set [11], 0 g; in [12], “Non-toxic”; in data set [13], 2.42 g; in data set [15], 2.28 g. Further, the Activity in [17] is given as 2.12 g; in [20], “Non-toxic”. Besides, the outcome in the data set on Mus musculus [4], with Mus musculus [5] and in the data set with Mus musculus [14] was inactive. In addition, the Emax in data set [6] is 80%; in [7], 15%; in data set [9] it was 86%; in data set [19], 10%. For the same compound, the “Ratio EC50” value in data set [10] amounted to 300. Moreover, the result with Mus musculus [1], with Mus musculus [16] and with Mus musculus [2] was Active. Besides, in data set [18], the EC50 was 2.411 µg/mL.

On to `c1cnc(N2CCNCC2)cn1`, for which the result in the data set with Mus musculus [1] was inactive.

Consider `Cc1cnc(C)c(N2CCNCC2)n1`, for which the outcome with Mus musculus [1] was inactive.

As for `c1ccc(-c2cncc(N3CCNCC3)n2)cc1`, the result in the data set on Mus musculus [2] was inactive.

As to `c1ccc2nc(N3CCNCC3)ccc2c1`, the outcome with Mus musculus [1] and with Mus musculus [2] was inactive.

Consider `Cc1cncc(N2CCNCC2)n1`, for which the outcome with Mus musculus [1] and in the data set with Mus musculus [2] was Active.

Take `COC(=O)c1nc(Cl)c(N2CCNCC2)nc1N`: the outcome with Mus musculus [2] was inactive.

Regarding `c1ccc(-c2cnc(N3CCNCC3)cn2)cc1`, the result with Mus musculus [1] and with Mus musculus [2] was inactive.

`CS(=O)(=O)c1cncc(N2CCNCC2)n1`: the outcome with Mus musculus [1] was inactive.

As to `CN(C)CCCN1CCN(c2cncc(Cl)n2)CC1`, the result in the data set on Mus musculus [1] and in the data set on Mus musculus [2] was inactive.

With `N#Cc1cncc(N2CCNCC2)n1`, the result in the data set with Mus musculus [1] and in the data set with Mus musculus [2] was inactive.

`NCCc1c[nH]c2ccc(O)cc12` [SEROTONIN]: the Emax in [21] was 37%; in data set [22], 70%; in data set [23], 92%; in [29], 7%; in data set [32] it was 80%. Besides, the Activity in data set [11] is 3.2 g; in data set [24] it was “Non-toxic”; in data set [25], 2.67 g; in data set [26], “Non-toxic”; in data set [27], 0.22 g; in data set [28], 3.18 g. Moreover, the Activity in data set [30] is on record as 2.32 g; in [31], 3.08 g; in data set [33] it was 1.23 g. Also, the EC50 in data set [18] is 0.0083 µg/mL (≈ 0.0471 µM).

Turning to `Cc1nccnc1N1CCNCC1`, the result in the data set with Mus musculus [1] and with Mus musculus [2] was inactive.

With `Clc1cnc(N2CCNCC2)cn1`, the result in the data set on Mus musculus [1] was inactive.

For `Clc1cncc(N2CCN(c3cncc(Cl)n3)CC2)n1`, in the data set with Mus musculus [1], the result was inactive.

Regarding `CC(=O)OC(C)C[N+](C)(C)C` (stereo unspecified) [METHACHOLINE], the Activity in data set [3] is 2.65 g.
